Like-named read-outs stand apart in the source and are kept apart here.
Test system: skin site on subject's forearm or face
Settings: for ENHANCED ACTIVE DELIVERY (HISTAMINE RESPONSE): about 10 microliters 0.10% wt/wt histamine, visual inspection after 10 minutes
Procedure: The microprotrusion disk of Example 1 was affixed on the desired skin site on subject's forearm or face. The implement of Example 3 was used to push the microprotrusion disk through stratum corneum with predetermined impact pressure modified by the choice of spring. The impact pressure was measured using a digital force meter (Model DFM 10, Chatillon, Greensboro, N.C.). The contact area between the implement device and skin was determined to be about 1.2 cm in diameter. The pressure per unit area was calculated from the ratio of pressure/contact area. The disk was removed immediately after the application. Both subject sensation (e.g., pain and sting) and erythema of the testing site were recorded immediately after the application, and is reported in Table 1.
The reaction of the subject's skin to histamine (e.g., erythema) was recorded after 10 minutes following histamine application to the treatment site by visual inspection. Additional inspection followed if a reaction was detected at 10 minutes. Controls were run by applying histamine solution to untreated skin sites (e.g., sites not pierced by the microprotrusion members). All test sites were graded visually for the evidence of post-inflammatory hyperpigmentation (PIH) for up to at least 3 weeks.

## NCCc1c[nH]cn1 [histamine]
Control test sites: untreated skin, not pierced by the microprotrusion members
  skin's reaction to topically applied histamine: did not result in erythema
Following microprotrusion treatment
  skin's reaction to topically applied histamine: manifested in erythema
Subject 1/Forearm, microprotrusion length 225 micrometer, 8 lbs/cm^2
  ENHANCED ACTIVE DELIVERY (HISTAMINE RESPONSE): Yes,
Subject 2/Forearm, microprotrusion length 225 micrometer, 6 lbs/cm^2
  ENHANCED ACTIVE DELIVERY (HISTAMINE RESPONSE): Yes,
Subject 3/Cheek (bone), microprotrusion length 185 micrometer, 3.2 lbs/cm^2
  ENHANCED ACTIVE DELIVERY (HISTAMINE RESPONSE): Yes, but not
Subject 4/Forearm, microprotrusion length 185 micrometer, 4.6 lbs/cm^2
  ENHANCED ACTIVE DELIVERY (HISTAMINE RESPONSE): Yes,
Subject 5/Forearm, microprotrusion length 185 micrometer, 8 lbs/cm^2
  ENHANCED ACTIVE DELIVERY (HISTAMINE RESPONSE): Yes,
Subject 6/Forehead, microprotrusion length 145 micrometer, 5 lbs/cm^2
  ENHANCED ACTIVE DELIVERY (HISTAMINE RESPONSE): Yes,
